Test results reported in US20250163076A1, “SYNTHESIS OF BRUTON'S TYROSINE KINASE INHIBITORS” (JANSSEN PHARMACEUTICA NV, priority 2022, published 2025).
≈ marks a conversion by molar mass, not a printed value. Read-outs that look alike come from different tables or passages of the source. Values belong to the molecule of their own block, whether it stands above or below them.

Key:
[1] = Epimerization kinetics / rotational energy barrier of atropisomers in solvents; type: physicochemical; conditions: buffer, t1/2 at 100° C.
[2] = as above; type: physicochemical
Experimental: The rotational energy barrier of compound of Formula (II) atropisomers was estimated according to the method known in the art. The rotational barrier was determined in several solvents and their aqueous mixtures and the results are reported in Table 13, where an average value of 120.5 kJ mol^−1 or 28.8 kcal mol^−1, corresponding to epimerization half-lives of 63.8 and 4.0 months at 20° C. and 37° C., respectively, were obtained, placing this compound on the top segment of Class 2 atropisomers according to the classification systems known in the art. The rotational barrier is slightly influenced by the solvent and increases in the order 1-butanol<2-butanol<1-propanol<propylene carbonate. Additionally, increasing amounts of water increased substantially the rotational barrier in all solvents with the highest value obtained in 1-propanol/water 33/67 w/w % system. Unfortunately, due to the low aqueous solubility of compound of Formula (II) in water, epimerization studies could not be accurately conducted in pure water.
Enriched compound of Formula (II) of the P isomer was dissolved in the respective solvent to create a concentration of ˜1 wt % and was placed in a standard screw cap vial (1.8 mL) equipped with a magnetic stirring bar. Subsequently, the vial was placed in the heating block of a parallel reactor setup (Crystal16, Technobis B.V.) which was preheated to the desired temperature (80° C.-100° C., depending on the solvent). At given time intervals, small aliquot samples were taken in an HPLC vial, diluted, and the diastereomeric excess of the mixture was determined by an UPLC apparatus, equipped with an Acquity UPLC BEH C18 column (0.6 ml/min, gradient 10 mM ammonium acetate acetonitrile 95-5 v/v % and acetonitrile at 35° C.). The time points and corresponding decay of diastereomeric excess (d.e.) were plotted as t vs ln (1/d.e.) to determine the interconversion rate constant, rotational energy barrier and epimerization half-life at the respective solvent and temperature:
[formula] [formula] [formula] • where [P], [M] are the concentrations of the P and M isomers, respectively, ke is the interconversion rate constant (s^−1), ΔGe^‡ is the rotational energy barrier (KJ mol^−1), T is the absolute temperature, kB, h and R are the Boltzmann, Planck and universal gas constants, respectively and t1/2 is the epimerization half-life. An example of the data treatment and determination procedure for ke is shown in FIG. 9 for propylene carbonate system at 100° C.

[3] = Human liver microsomes T1/2; type: in vitro ADME; conditions: human, liver microsomes
BTK = BTK (Homo sapiens, UniProt Q06187); assay: BTK covalent inhibition kinetics (KI, kinact, kinact/KI); type: biochemical
Sequence of BTK (Q06187 whole entry): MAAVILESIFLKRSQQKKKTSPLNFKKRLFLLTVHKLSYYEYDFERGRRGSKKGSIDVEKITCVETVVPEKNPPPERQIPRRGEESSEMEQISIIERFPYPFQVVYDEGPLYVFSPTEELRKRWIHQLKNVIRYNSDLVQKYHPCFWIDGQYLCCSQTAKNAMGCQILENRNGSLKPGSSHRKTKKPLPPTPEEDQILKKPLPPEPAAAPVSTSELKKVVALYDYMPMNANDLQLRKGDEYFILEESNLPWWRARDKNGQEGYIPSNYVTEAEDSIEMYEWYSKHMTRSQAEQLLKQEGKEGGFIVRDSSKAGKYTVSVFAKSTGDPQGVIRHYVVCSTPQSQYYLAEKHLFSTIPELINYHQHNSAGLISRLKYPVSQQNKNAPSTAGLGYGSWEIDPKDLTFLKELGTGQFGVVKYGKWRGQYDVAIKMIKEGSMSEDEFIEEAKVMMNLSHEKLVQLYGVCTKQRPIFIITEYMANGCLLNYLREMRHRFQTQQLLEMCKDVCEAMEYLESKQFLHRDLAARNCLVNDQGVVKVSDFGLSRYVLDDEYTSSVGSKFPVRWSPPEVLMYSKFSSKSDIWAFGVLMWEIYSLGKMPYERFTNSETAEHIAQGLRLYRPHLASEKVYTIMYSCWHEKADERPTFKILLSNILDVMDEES
Experimental: The development of the structure-activity relationship was conducted by characterizing the non-covalent affinity of each inhibitor for BTK (KI) and the first order rate constant for irreversible covalent bond formation (kinact). The second order rate constant kinact/KI ratio is used to assess the covalent inhibitor potency because it is independent of incubation time and substrate concentrations (Copeland, R. A. Evaluation of Enzyme Inhibitors in Drug Discovery: a Guide for Medicinal Chemists and Pharmacologists; 2nd ed.; Wiley: Hoboken, N.J., 2013).

[4] = Aqueous solubility at pH 2 and pH 7; type: physicochemical
[5] = test system: anti-IgM induced B cell activation in human whole blood; assay: Human whole blood assay, anti-IgM induced B cell activation; type: cell-based; conditions: anti-IgM stimulation
Experimental: (§1) The activity of Compound M was assessed in rat and human whole blood assays using anti-IgD and anti-IgM stimulation, respectively, to trigger B-cell activation via B-cell receptor.

Mouse CD69 cell = assay: Mouse CD69 splenocyte assay; type: cell-based
PPB % free, rat = type: in vitro ADME; conditions: plasma
[6] = test system: B-cell activation via B-cell receptor in rat whole blood; assay: Rat whole blood assay, anti-IgD stimulated B-cell activation; type: cell-based; conditions: for IC50: Rattus norvegicus, B-cell, anti-IgD stimulation
Experimental: as §1

PPB % free, cyno = type: in vitro ADME; conditions: cynomolgus monkey, plasma
PPB % free, human = conditions: plasma
PPB % free, dog = type: in vitro ADME; conditions: plasma
[7] = Liver microsomes T1/2 (Table 3); type: in vitro ADME; conditions: species not given
[8] = Rat oral bioavailability (% F); type: in vivo; conditions: for bioavailability: in vivo, oral
[9] = human, plasma
[10] = Table 4, average of 2 independent determinations (± SD)
[11] = Table 5, average of 2 independent determinations (± SD)
[12] = aqueous medium, aqueous buffer, Table 5, pH 7, read-out: Solubility pH 7
[13] = aqueous medium, simulated gastric fluid, Table 5, pH 2, read-out: Solubility pH 2

Compound: C=CC(=O)N[C@H]1CCC[C@H]1NC(=O)c1sc2nccc3c2c1NC(=O)N3c1cnc(CC(C)C)cc1C [Formula (II), N-((1R,2S)-2-acrylamidocyclopentyl)-5-(6-isobutyl-4-methylpyridin-3-yl)-4-oxo-4,5-dihydro-3H-1-thia-3,5,8-triazaacenaphthylene-2-carboxamide]
- half-life [1]: 0.0299 days
- ΔG ([2]; 1-butanol): 28.49 kcal/mol
- half-life ([2]; 1-butanol, t1/2 at 20° C.): 1100 days
- ΔG ([2]; 1-butanol/water 85/15 w/w %): 28.68 kcal/mol
- half-life ([2]; 1-butanol/water 85/15 w/w %, t1/2 at 20° C.): 1460 days
- ΔG ([2]; 1-propanol): 28.7 kcal/mol
- half-life ([2]; 1-propanol, t1/2 at 20° C.): 1460 days
- ΔG ([2]; 1-propanol/water 33/67 w/w %): 29.09 kcal/mol
- half-life ([2]; 1-propanol/water 33/67 w/w %, t1/2 at 20° C.): 3290 days
- ΔG ([2]; 1-propanol/water 50/50 w/w %): 28.97 kcal/mol
- half-life ([2]; 1-propanol/water 50/50 w/w %, t1/2 at 20° C.): 2560 days
- ΔG ([2]; 1-propanol/water 67/33 w/w %): 28.85 kcal/mol
- half-life ([2]; 1-propanol/water 67/33 w/w %, t1/2 at 20° C.): 2190 days
- ΔG ([2]; 1-propanol/water 80/20 w/w %): 28.82 kcal/mol
- half-life ([2]; 1-propanol/water 80/20 w/w %, t1/2 at 20° C.): 2190 days
- ΔG ([2]; 2-MeTHF): 28.54 kcal/mol
- half-life ([2]; 2-MeTHF, t1/2 at 20° C.): 1100 days
- ΔG ([2]; 2-butanol): 28.54 kcal/mol
- half-life ([2]; 2-butanol, t1/2 at 20° C.): 1100 days
- ΔG ([2]; 2-butanol/water 70/30 w/w %): 28.78 kcal/mol
- half-life ([2]; 2-butanol/water 70/30 w/w %, t1/2 at 20° C.): 1830 days
- ΔG ([2]; 3-methyl-1-butanol): 28.39 kcal/mol
- half-life ([2]; 3-methyl-1-butanol, t1/2 at 20° C.): 1100 days
- ΔG ([2]; 3-methyl-1-butanol/water 91/9 w/w %): 28.61 kcal/mol
- half-life ([2]; 3-methyl-1-butanol/water 91/9 w/w %, t1/2 at 20° C.): 1460 days
- ΔG ([2]; Acetonitrile): 29.16 kcal/mol
- half-life ([2]; Acetonitrile, t1/2 at 20° C.): 3650 days
- ΔG ([2]; EA): 28.59 kcal/mol
- half-life ([2]; EA, t1/2 at 20° C.): 1460 days
- ΔG ([2]; EtOH): 28.99 kcal/mol
- half-life ([2]; EtOH, t1/2 at 20° C.): 2560 days
- ΔG ([2]; IPA): 28.87 kcal/mol
- half-life ([2]; IPA, t1/2 at 20° C.): 2190 days
- ΔG ([2]; IPAC): 28.73 kcal/mol
- half-life ([2]; IPAC, t1/2 at 20° C.): 1830 days
- ΔG ([2]; MEK): 28.8 kcal/mol
- half-life ([2]; MEK, t1/2 at 20° C.): 1830 days
- ΔG ([2]; MIBK): 28.54 kcal/mol
- half-life ([2]; MIBK, t1/2 at 20° C.): 1100 days
- ΔG ([2]; Propylene carbonate): 28.9 kcal/mol
- ΔG ([2]; Toluene): 30.02 kcal/mol
- half-life ([2]; buffer, t1/2 at 85° C.): 0.156 days
- half-life ([2]; buffer, t1/2 at 120° C.): 0.00417 days
- half-life ([2]; propylene carbonate, t1/2 at 20° C.): 2190 days
- ΔG ([2]; propylene carbonate/water 93/7 w/w %): 28.94 kcal/mol
- half-life ([2]; propylene carbonate/water 93/7 w/w %, t1/2 at 20° C.): 2560 days

Compound: C=CC(=O)N[C@H]1CCC[C@H]1NC(=O)c1sc2nccc3c2c1NC(=O)N3c1cnc(CC(C)C)cc1C (single isomer, unassigned) [Compound M]
- half-life ([3]; Table 5): 0.0264 days
- IC50 [5]: 0.089 ± 0.012 µM
- IC50 (Mouse CD69 cell): 0.099 ± 0.068 µM
- Ki (BTK; [11]): 0.0485 ± 0.0029 µM
- kinact (BTK; [11]): 0.000348 s⁻¹
- kinact/KI (BTK; Table 5, read-out: kinact/KI): 7290 ± 590 M⁻¹ s⁻¹
- fraction unbound (PPB % free, rat): 0.037
- pH 2 solubility ([4]; Table 6, pH 2): 320 μM
- pH 7 solubility ([4]; Table 6, pH 7): 7 μM
- Solubility [4, 12]: 7 µM (≈ 3.63 µg/mL)
- Solubility [4, 13]: 320 µM (≈ 166 µg/mL)
- IC50 [6]: 0.041 ± 0.012 µM
- more potent in rat whole blood ([6]; compared to Compound A): 3 fold
- fraction unbound (PPB % free, cyno): 0.032
- fraction unbound (PPB % free, human): 0.031
- fraction unbound (PPB % free, dog): 0.063

Compound: C=CC(=O)N1CCC(NC(=O)c2sc3nccc4c3c2NC(=O)N4c2cnc(CC(C)C)cc2C)C1 (stereo not shown) [K]
- half-life ([3]; Table 5): 0.0368 days
- Ki (BTK; [11]): 2.55 µM
- kinact (BTK; [11]): 0.000255 s⁻¹
- kinact/KI (BTK; Table 5, read-out: kinact/KI): 98.5 ± 12 M⁻¹ s⁻¹
- Solubility [4, 12]: 172 µM (≈ 86.8 µg/mL)
- Solubility [4, 13]: > 400 µM

The remaining lines, values ahead:

- half-life ([3]; Table 4): 0.00417 days
- Ki (BTK; [10]): 0.145 ± 0.02 µM
- kinact (BTK; [10]): 0.000319 s⁻¹
- kinact/KI (BTK; Table 4, read-out: kinact/KI): 2220 ± 272 M⁻¹ s⁻¹
- Solubility ([4]; aqueous medium at pH 2, simulated gastric fluid, Table 4, pH 2, read-out: Solubility pH 2): 350 µM (≈ 182 µg/mL)
- Solubility ([4]; aqueous medium at pH 7, aqueous buffer, Table 4, pH 7, read-out: Solubility pH 7): 23 µM (≈ 11.9 µg/mL)
Compound: C=CC(=O)N1CCCC(NC(=O)c2sc3nccc4c3c2NC(=O)N4c2cnc(CC(C)C)cc2C)C1 (stereo not shown) [J]

- half-life ([3]; Table 4): < 0.00278 days
- Ki (BTK; [10]): 0.032 ± 0.02 µM
- kinact (BTK; [10]): 0.00039 ± 0.00011 s⁻¹
- kinact/KI (BTK; Table 4, read-out: kinact/KI): 13800 ± 5200 M⁻¹ s⁻¹
- kinact/KI (BTK; text b354): 13800 M⁻¹ s⁻¹
- Solubility ([4]; aqueous medium, aqueous buffer, Table 4, pH 7, read-out: Solubility pH 7): < 4 µM
- Solubility ([4]; aqueous medium, simulated gastric fluid, Table 4, pH 2, read-out: Solubility pH 2): < 4 µM
Compound: C=CC(=O)N1CCCC(NC(=O)c2sc3nccc4c3c2NC(=O)N4c2ccc(Oc3ccccc3)cc2)C1 (stereo not shown) [Compound B]

- Liver microsomes T1/2 ([7]; first of the two values printed 23/40): 0.016 days
- half-life ([7]; liver microsomes, second of the two values printed 23/40): 0.0278 days
- IC50 [5]: 0.084 ± 0.039 µM
- Rat % F (1 g/kg, crystalline suspension) ([8]; 1 g/kg, crystalline suspension): <1%
- bioavailability ([8]; 1 g/kg, crystalline suspension, read-out: Rat % F (1 g/kg, crystalline suspension)): < 1%
- bioavailability ([8]; 20% HP-β-CD solution, read-out: Rat % F (20% HP-β-CD solution)): 29.7%
- Ki (BTK; Table 3, average of two independent determinations (±SD)): 0.0288 ± 0.021 µM
- pH 2 solubility ([4]; Table 3, pH 2): <4/<4 μM
- pH 7 solubility ([4]; Table 3, pH 7): <4/<4 μM
- pH 2 solubility ([4]; Table 6, pH 2): <4/<4 μM
- pH 7 solubility ([4]; Table 6, pH 7): <4/<4 μM
- IC50 [6]: 0.13 ± 0.011 µM
- PPB % free [9]: 0.16%
Compound: C=CC(=O)N1CC[C@@H](NC(=O)c2sc3nccc4c3c2NC(=O)N4c2ccc(Oc3ccccc3)cc2C)C1 [Compound A]
